Measured values from patent publication US20250243219A1, “MACROCYCLIC COMPOUNDS AND USES THEREOF” (Cypralis Limited, priority 2022, published 2025).
pKi: −log10 of the molar value.

What was measured:
[1] = Blood-brain barrier penetration, intravenous dosing; format: in vivo, rodents (mice or rats); conditions: 3 mg/kg intravenous; for Brain concentration / Plasma concentration: at 30 min.
Experimental: Test compounds were administered to rodents (mice or rats) either orally, subcutaneously or intravenously. To determine blood or plasma concentrations blood samples were taken at different time points and analysed for the concentration of test compound by LC/MS. Brain concentrations were measured by sacrificing animals and LC/MS analysis of brain homogenate.
The results for Compounds (2), (19), (6) and (27) are summarised in Table 6 showing concentrations of the Compounds in blood plasma and the brain.

cyclophilin D = cyclophilin D (Homo sapiens (Human), UniProt P30405); experiment: Functional peptidyl prolyl isomerase (PPIase) spectrophotometric assay, cyclophilin D; format: biochemical; conditions: second value of CypA/D cell; read-out: Ki CypD
cyclophilin D, sequence (P30405 30-207, species assumed): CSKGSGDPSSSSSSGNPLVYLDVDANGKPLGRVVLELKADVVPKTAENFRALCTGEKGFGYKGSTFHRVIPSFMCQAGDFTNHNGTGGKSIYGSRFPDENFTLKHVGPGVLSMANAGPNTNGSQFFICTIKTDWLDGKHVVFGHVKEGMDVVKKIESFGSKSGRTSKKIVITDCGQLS
In short: (§1)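 Cuvette-based UV/Vis assay of PPIase-catalysed cis-to-trans isomerisation of a peptide substrate. First-order rate constants fitted to absorbance, background rate subtracted. Ki derived from rate constant versus inhibitor concentration, typically 6-point curves in duplicate.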

[2] = system: permeabilised HepG2 cells; experiment: Calcium retention capacity (CRC) assay in permeabilised HepG2 cells (MPTP opening); format: cell-based, human; design: CRC [10 μM]: unit not given here; conditions: compound at 10 μM; for CRC [10 μM]: digitonin permeabilised HepG2 cells; for CRC [10 μM] (ratio vs CsA): normalised to cyclosporin A, value in brackets
In short: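 Digitonin-permeabilised HepG2 cells received trains of calcium pulses (typically 5 μM) monitored with Calcium Green-5N until buffering failed, marking permeability transition. Runs with and without compound; calcium retained at 10 μM compound expressed as ratio versus cyclosporin A positive control.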

cyclophilin A = cyclophilin A (Homo sapiens (Human), UniProt P62937); experiment: Functional peptidyl prolyl isomerase (PPIase) spectrophotometric assay, cyclophilin A; format: biochemical; conditions: first value of CypA/D cell
cyclophilin A, sequence (P62937 whole entry, species assumed): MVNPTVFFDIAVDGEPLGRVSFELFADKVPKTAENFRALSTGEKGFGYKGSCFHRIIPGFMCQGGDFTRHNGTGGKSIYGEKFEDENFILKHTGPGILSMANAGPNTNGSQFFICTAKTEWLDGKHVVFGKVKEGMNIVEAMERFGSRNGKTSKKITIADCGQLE
In short: as §1

SH-SY5Y cells = experiment: Thapsigargin treated cell death assay in SH-SY5Y cells; format: cell-based, human; conditions: compound at 10 μM; positive = protection from cell death, negative = compound toxicity
In short: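 SH-SY5Y neuroblastoma cells given compound (typically 1, 3 and 10 μM, triplicate) 30 min before thapsigargin, with cyclosporin A (3 and 10 μM) as positive control. Cell death read kinetically over 24 h by CellTox Green DNA-binding fluorescence; values are % recovery at 10 μM, usually at 8 h, positive meaning protection.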

Row | SMILES | Blood-brain barrier passage [1] | Brain concentration [1] | Plasma concentration [1] | pKi (cyclophilin D) | pKi (cyclophilin A) | CRC [10 μM] [2] | CRC [10 μM] (ratio vs CsA) [2] | SYSY [10 μM] % recovery (SH-SY5Y cells)
1 | CC(C)[C@@H]1OC(=O)C2(/C=C/c3ccc4ccc(nc4c3)N(C)N(C)C(=O)[C@@H]3CCCN(N3)C(=O)[C@H](C)NC1=O)COCOC2 [(19)] | passed the blood-brain barrier | 116 ng/mL | 74 ng/mL | 6.82 | 7.64 | 30 | 0.77 | 
2 | CC(C)[C@@H]1OC(=O)C(C)(C)/C=C/c2ccc3ccc(nc3c2)N(C)NC(=O)[C@@H]2CCCN(N2)C(=O)[C@H](Cc2ccccc2)NC1=O [Compound (76)] |  |  |  | 8.20 | 8.25 | 33.9 | 0.97 | 27.6%
3 | CC(C)[C@@H]1OC(=O)C(C)(C)/C=C/c2ccc3ccc(nc3c2)N(C)NC(=O)[C@@H]2CCCN(N2)C(=O)[C@H](Cc2ccc(CN(C)C)cc2)NC1=O [Compound (79)] |  |  |  | 7.55 | 8.05 | 28.33 | 0.85 | 1.8%
4 | CC(C)[C@@H]1OC(=O)C(C)(C)/C=C/c2ccc3ccc(nc3c2)N(C)NC(=O)[C@@H]2CCCN(N2)C(=O)[C@H](C2CC2)NC1=O [Compound (80)] |  |  |  | 7.66 | 8.40 | 25 | 1.00 | 29.2%

Further lines, with some results ahead:

Row | Blood-brain barrier passage [1] | Brain concentration [1] | Plasma concentration [1] | pKi (cyclophilin D) | pKi (cyclophilin A) | SMILES | CRC [10 μM] [2] | CRC [10 μM] (ratio vs CsA) [2] | SYSY [10 μM] % recovery (SH-SY5Y cells)
5 | passed the blood-brain barrier | 285 ng/mL | 1382 ng/mL |  |  | C[C@@H]1NC(=O)C(CCc2ccccc2)OC(=O)C(C)(C)/C=C/c2ccc3ccc(nc3c2)N(C)NC(=O)[C@@H]2CCCN(N2)C1=O (single isomer, unassigned) [(27)] |  |  | 
6 | passed the blood-brain barrier | 197 ng/mL | 1216 ng/mL | < 8.00 | < 5.00 | CC(C)[C@@H]1OC(=O)C(C)(C)C/C=C/c2ccc3ccc(nc3c2)N(C)NC(=O)[C@@H]2CCCN(N2)C(=O)[C@H](C)NC1=O [Compound (6)] |  |  | 
7 |  |  |  | 7.68 | 7.85 | CC(C)[C@@H]1OC(=O)C(C)(C)/C=C/c2ccc3ccc(nc3c2)N(C)NC(=O)[C@@H]2CCCN(N2)C(=O)[C@H](CCC(=O)N2CCC(O)CC2)NC1=O [Compound (72)] | 20 | 0.80 | 43%
8 |  |  |  | 7.38 | 7.96 | CC(C)[C@@H]1OC(=O)C(C)(C)/C=C/c2ccc3ccc(nc3c2)N(C)NC(=O)[C@@H]2CCCN(N2)C(=O)[C@H](CC2CCN(C)CC2)NC1=O [Compound (73)] | 15 | 0.75 | 43%
9 |  |  |  | 8.03 | 8.01 | C[C@@H]1NC(=O)[C@H](Cc2ccccc2Cl)OC(=O)C(C)(C)/C=C/c2ccc3ccc(nc3c2)N(C)NC(=O)[C@@H]2CCCN(N2)C1=O [Compound (81)] | 20 | 0.67 | 44%
